Measurements as given in US9629816B2, “Small molecule therapeutic compounds targeting thioesterase deficiency disorders and methods of using the same” (The United States of America, as represented by the …, priority 2011, dated 2017).

Legend:
[1] = Solubility in tissue culture media; type: physicochemical
INCL fibroblasts = test: MTT viability of cultured INCL fibroblasts; type: cell-based, human; conditions: 48 hours of treatment; viability as percent of untreated control (FIG. 4A-C)
Procedure: Ten out of the twelve HA-derivative compounds listed in Table 1 were tested to determine whether they adversely affected the viability of cultured cells from INCL patients. […] Briefly, following treatment with HA-derivatives INCL cells were incubated with Thiazolyl Blue Tetrazolium […] for 4 hours at 37° C. Formazan crystals thus formed were dissolved in acidified isopropanol and absorption was measured at 570 nm. Viability was expressed as percent of untreated control.
Briefly, normal fibroblasts (GM 00498) were obtained from the Coriell Institute of Medical Research, USA. PPT1-deficient INCL fibroblasts were isolated from skin biopsy samples of INCL patients admitted to an ongoing clinical protocol (#01-CH-0086) approved by the Institutional Review Board (IRB) of the National Institute of Child Health and Human Development (NICHD) at the National Institute of Health (NIH). […] The fibroblasts were cultured in the presence or absence of varying concentrations of each of the HA-derivatives for 48 hours, after which the viability of the cells was determined using the MTT-Cell Viability Assay by T. Mossman, (Rapid colorimetric assay for cellular growth and survival. J. Immunol. Method. 65 (1983) 55-63).

[2] = Cleavage of thioester linkage in [14C]palmitoyl-CoA, release of free [14C]palmitate (TLC, autoradiography); type: biochemical; conditions: varying concentrations; various incubation times; [14C]palmitate production
Procedure: It has been reported that thioester linkages in s-acylated proteins are labile, and that compounds having nucleophilic properties are able to disrupt such linkages. Thus, the ability of derivatives of hydroxylamine to disrupt thioester linkages in s-acylated proteins was tested. Twelve HA-derivatives, described in Table 1, were screened for their ability to cleave thioester linkage in [^14C]palmitoyl˜CoA (a model thioester substrate of PPT1), mediating the release of free [^14C]palmitic acid, a process depicted in FIG. 2. […] [^14C]-palmitoyl-CoA was incubated for 1 hour with each of the HA derivatives and the reaction mixture was resolved by thin layer chromatography (TLC) followed by autoradiography. The free [^14C]-palmitate bands were visible and quantitated by densitometric analysis of the bands.

solubility in tissue culture media [1]	Structure (SMILES)	dose- and time-dependence of thioester linkage cleavage in [14C]palmitoyl-CoA [2]	also measured
insoluble in tissue culture media	ON(Cc1ccccc1)Cc1ccccc1 [N,N-dibenzylhydroxylamine, N,N-Dibenzylhydroxylamine]	–	–
–	O=C(c1ccccc1)N(O)c1ccccc1 [N-Benzoyl-N-phenyl hydroxylamine]	–	toxicity / viability of INCL cells (MTT) (INCL fibroblasts): all ten compounds except N-Benzoyl-N-phenyl hydroxylamine are non-toxic
insoluble in tissue culture media	CC(ON(C(c1ccccc1)C(C)C)C(C)(C)C)c1ccc(CCl)cc1 (centres unmarked) [N-tert-Butyl-O-[1-[4-(chloromethyl)phenyl]ethyl]-N-(2-methyl-1-phenylpropyl)hydroxylamine]	–	–
–	ONCc1ccccc1 [benzyl-HA, N-Benzylhydroxylamine]	cleaved the thioester linkage in a dose-dependent and time-dependent manner	–
–	CNO [methyl-HA, N-Methylhydroxylamine]	cleaved the thioester linkage in a dose-dependent and time-dependent manner	–
